US20160106439A1, “PNEUMATIC TOURNIQUET” (BIONUMERIK PHARMACEUTICALS, INC., priority 2013, published 2016)
Entries after “also recorded” stand apart in the source; their conditions may differ.

Assays:
[1] = target: human peroxiredoxin 4 (PRX4) (Homo sapiens, UniProt Q13162); assay: Tavocept-derived mesna adducts on Prx 4 (MS, X-ray crystallography)
[2] = target: T1, Anaplastic Lymphoma Kinase (ALK) (Homo sapiens, UniProt Q9UM73); assay: ALK kinase activity (summary Table 27); type: biochemical
T1 construct: illustrates the kinase domain of ALK (residues 1058-1623) which was used in these experiments; purchased Millipore; host or cells: Sf21 insect cells (baculovirus)
T1 sequence (Q9UM73 1058-1620 limits assumed): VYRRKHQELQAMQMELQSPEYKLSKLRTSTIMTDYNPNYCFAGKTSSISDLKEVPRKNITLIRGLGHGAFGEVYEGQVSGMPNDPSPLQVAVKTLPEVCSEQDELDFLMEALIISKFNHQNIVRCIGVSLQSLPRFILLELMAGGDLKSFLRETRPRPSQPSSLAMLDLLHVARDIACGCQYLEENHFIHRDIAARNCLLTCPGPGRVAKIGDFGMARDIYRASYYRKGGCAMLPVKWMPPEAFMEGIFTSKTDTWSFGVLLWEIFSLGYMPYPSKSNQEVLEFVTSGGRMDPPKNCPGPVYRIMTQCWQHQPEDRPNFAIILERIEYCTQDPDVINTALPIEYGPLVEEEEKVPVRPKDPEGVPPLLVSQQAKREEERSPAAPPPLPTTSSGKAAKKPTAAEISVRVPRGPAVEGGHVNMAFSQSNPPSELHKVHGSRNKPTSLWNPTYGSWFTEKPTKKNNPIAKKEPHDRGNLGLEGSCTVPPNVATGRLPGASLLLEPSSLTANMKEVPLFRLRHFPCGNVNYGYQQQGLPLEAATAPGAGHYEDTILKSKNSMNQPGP

ROS1 kinase = ROS1 kinase (Homo sapiens, UniProt P08922); assay: ROS1 kinase assays; type: biochemical; set-up: Recombinant human ROS1 kinase (residues 1883-2347), containing an N-terminal GST tag; purchased SignalChem; host or cells: Sf9 insect cells (baculovirus)
Chain of ROS1 kinase (P08922 1883-2347): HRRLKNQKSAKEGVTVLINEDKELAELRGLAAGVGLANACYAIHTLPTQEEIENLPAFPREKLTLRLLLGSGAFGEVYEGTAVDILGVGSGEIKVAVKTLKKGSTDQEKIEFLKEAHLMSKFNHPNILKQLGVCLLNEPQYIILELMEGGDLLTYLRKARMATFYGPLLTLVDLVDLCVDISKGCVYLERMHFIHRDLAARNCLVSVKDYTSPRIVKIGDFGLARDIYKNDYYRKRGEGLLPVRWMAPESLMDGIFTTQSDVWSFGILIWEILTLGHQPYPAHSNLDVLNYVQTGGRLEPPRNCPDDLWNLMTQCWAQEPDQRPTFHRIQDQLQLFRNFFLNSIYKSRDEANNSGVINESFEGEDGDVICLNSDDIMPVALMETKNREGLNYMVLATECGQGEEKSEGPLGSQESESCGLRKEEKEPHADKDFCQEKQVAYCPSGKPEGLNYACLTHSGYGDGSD

[3] = system: bovine brain microtubule protein (α-/β-tubulin); assay: Microtubule protein polymerization assay (OD350) and electron microscopy; type: biochemical
WT EGFR kinase = WT EGFR kinase (Homo sapiens, UniProt P00533)
Chain of WT EGFR kinase (P00533 25-1210): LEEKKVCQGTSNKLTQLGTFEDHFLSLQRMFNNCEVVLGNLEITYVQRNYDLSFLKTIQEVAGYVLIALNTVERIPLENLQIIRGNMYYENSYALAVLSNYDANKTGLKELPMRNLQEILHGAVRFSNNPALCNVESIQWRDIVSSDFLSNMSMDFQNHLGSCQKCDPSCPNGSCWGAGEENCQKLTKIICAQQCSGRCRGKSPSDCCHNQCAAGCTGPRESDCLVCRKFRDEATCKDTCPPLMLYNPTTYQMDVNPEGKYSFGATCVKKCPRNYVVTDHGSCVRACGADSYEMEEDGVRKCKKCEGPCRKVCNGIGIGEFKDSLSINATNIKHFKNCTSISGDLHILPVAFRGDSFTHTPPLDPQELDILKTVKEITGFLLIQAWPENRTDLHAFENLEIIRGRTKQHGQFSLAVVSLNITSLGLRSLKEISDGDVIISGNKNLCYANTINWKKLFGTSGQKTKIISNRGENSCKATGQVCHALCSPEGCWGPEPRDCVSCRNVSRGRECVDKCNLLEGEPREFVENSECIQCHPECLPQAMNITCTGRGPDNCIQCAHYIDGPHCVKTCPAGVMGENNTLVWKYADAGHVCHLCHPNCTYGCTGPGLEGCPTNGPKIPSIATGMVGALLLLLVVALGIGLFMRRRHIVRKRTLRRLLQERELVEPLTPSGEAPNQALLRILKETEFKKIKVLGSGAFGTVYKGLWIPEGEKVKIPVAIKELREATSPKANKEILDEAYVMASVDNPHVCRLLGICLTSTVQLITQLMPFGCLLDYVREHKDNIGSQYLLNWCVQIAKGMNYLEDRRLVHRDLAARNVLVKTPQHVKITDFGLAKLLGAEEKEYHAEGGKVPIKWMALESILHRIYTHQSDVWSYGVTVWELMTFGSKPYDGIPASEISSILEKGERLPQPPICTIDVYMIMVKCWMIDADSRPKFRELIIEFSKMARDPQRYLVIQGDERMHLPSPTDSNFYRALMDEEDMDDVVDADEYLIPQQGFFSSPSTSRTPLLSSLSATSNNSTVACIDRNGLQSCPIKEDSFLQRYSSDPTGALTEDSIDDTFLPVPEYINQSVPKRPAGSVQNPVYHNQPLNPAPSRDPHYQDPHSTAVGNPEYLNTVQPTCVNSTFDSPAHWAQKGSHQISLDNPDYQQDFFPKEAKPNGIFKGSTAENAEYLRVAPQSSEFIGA

Human Grx = target: T2, Human Grx (Homo sapiens, UniProt P35754); assay: MS and crystal structure of Grx with Tavocept-derived mesna adducts; type: binding
T2 construct: 6xHis (TEV-cleavable) (N, cleaved yes); made in house; host or cells: E. coli BL21 (RIPL)
T2 sequence (P35754 whole entry): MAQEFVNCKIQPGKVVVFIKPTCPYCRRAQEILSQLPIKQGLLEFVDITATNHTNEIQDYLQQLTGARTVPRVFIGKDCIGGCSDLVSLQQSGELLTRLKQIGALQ

thioredoxin = target: T3, thioredoxin (Homo sapiens, UniProt P10599); assay: LC-MS of thioredoxin incubations; type: binding; details: ion at m/z 1288.3
T3 construct: purchased Sigma (SigmaAldrich); host or cells: E. coli
T3 sequence (P10599 whole entry): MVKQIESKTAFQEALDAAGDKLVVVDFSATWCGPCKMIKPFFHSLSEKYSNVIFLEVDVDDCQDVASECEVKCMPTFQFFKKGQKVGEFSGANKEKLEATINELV

Recombinant human ERCC1 = target: T4, Recombinant human ERCC1 (Homo sapiens, UniProt P07992); assay: Tavocept-derived mesna adducts on ERCC1 (trypsin digest, LC-MS); type: binding; details: 20 mM Tavocept, LC-MS of tryptic fragments
T4 construct: 6xHis (N); purchased Creative BioMart; host or cells: E. coli
T4 sequence (P07992 whole entry, the tested form may be a part): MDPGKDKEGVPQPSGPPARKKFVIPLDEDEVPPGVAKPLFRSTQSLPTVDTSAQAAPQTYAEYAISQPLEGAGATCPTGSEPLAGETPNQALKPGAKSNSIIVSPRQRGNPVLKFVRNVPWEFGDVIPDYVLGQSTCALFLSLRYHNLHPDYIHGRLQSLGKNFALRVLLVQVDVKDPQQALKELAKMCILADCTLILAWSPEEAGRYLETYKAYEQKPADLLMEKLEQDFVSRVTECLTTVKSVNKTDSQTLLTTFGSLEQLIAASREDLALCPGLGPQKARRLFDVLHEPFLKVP
Description: Recombinant human ERCC1 (1 mg; 27.8 nanomoles, Creative BioMart) was reduced using a vast excess of dithiothreitol (DTT, 100 μL of a 500 mM stock) in ammonium bicarbonate (40 mM, pH 8.0) at 37° C. for 75 minutes (total reaction volume was 900 μL). […] Each 800 μL reaction was then chromatographed over a NAP10 column. This step removed unreacted Tavocept and was used for the buffer control simply to ensure that both samples received the same handling/manipulation during the course of the experiment. The elution volume from each NAP10 column was 1.2 mL. […] Trypsin digestion reactions were incubated for 1 hour at 30° C. and then for 17 hours at room temperature (23° C.). Following the Trypsin digest, the samples were lyophilized to dryness overnight and then resuspended in a volume of approximately 100 μL water and analyzed using LC-MS. A Symmetry C18 HPLC column (Waters, Franklin, Mass.; 3.5 μm; 4.6 mm×75 mm) and a Waters Alliance liquid chromatography system (Waters 2695, Franklin, Mass., USA) coupled to a Micromass single quadropole mass detector (Micromass ZMD, Manchester, UK) were used to analyze fragments from trypsin-digested human ERCC1. The mobile phase contained 0.1% of formic acid throughout the run and the flow rate was 0.35 mL/min. […]

RNR subunit 1 = RNR subunit 1 (Homo sapiens, UniProt P23921); assay: Whole protein MS of RNR subunit 1; type: binding; details: whole protein Mass Spectroscopy
Chain of RNR subunit 1 (P23921 whole entry): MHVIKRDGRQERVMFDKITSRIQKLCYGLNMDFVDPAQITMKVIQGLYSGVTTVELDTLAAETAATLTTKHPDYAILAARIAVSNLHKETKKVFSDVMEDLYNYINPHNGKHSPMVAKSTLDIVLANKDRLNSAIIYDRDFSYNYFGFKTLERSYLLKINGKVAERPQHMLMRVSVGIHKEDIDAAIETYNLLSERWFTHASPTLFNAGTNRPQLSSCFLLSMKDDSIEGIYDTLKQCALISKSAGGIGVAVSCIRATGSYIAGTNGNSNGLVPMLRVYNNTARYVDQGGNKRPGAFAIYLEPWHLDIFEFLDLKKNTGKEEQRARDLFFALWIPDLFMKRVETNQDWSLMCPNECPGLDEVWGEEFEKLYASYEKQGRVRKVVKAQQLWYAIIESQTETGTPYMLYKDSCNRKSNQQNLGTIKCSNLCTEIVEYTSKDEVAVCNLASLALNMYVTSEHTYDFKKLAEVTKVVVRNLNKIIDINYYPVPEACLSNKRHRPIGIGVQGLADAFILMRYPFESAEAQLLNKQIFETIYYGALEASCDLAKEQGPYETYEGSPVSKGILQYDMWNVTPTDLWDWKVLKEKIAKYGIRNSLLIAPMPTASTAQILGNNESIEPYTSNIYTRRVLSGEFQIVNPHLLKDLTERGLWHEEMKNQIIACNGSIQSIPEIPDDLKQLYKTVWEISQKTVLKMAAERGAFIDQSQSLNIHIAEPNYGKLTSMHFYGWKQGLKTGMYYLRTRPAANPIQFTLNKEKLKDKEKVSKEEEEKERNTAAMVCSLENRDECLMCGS
Description: RNR1 contains a total of sixteen (16) cysteine residues and at least five (5) of these cysteine residues are required for catalysis, including: Cys218, Cys429, Cys444, Cys787, and Cys790. It is hypothesized that the Tavocept-derived mesna adducts identified on the RNR1 protein using whole protein Mass Spectroscopy (see, FIG. 49) may alter or modulate RNR activity.

[4] = system: human breast, ovarian and lymphoma cancer cell lines; assay: Interference with paclitaxel induced apoptosis (PARP cleavage, Bcl-2 phosphorylation, DNA laddering); type: cell-based
Description: Tavocept mediates the non-enzymatic xenobiotic modification of sulfur-containing amino acid residues (e.g., cysteine) on proteins. As an engineered, non-naturally occurring agent (i.e., xenobiotic), Tavocept is autocatalytic and requires no protein cofactor to cause the xenobiotic modification of cysteine, but appears to be specific for cysteine residues located within a particular structural context (i.e., not all cysteines in a protein are so modified). Tavocept-mediated, xenobiotic modification represents a novel mechanism of action for a cancer treating agent and can be compared to a degree with post-translational modifications of cysteine residues in proteins (see, Table 3, below).

Chain of human peroxiredoxin 4 (PRX4) (Q13162 79-271 limits assumed): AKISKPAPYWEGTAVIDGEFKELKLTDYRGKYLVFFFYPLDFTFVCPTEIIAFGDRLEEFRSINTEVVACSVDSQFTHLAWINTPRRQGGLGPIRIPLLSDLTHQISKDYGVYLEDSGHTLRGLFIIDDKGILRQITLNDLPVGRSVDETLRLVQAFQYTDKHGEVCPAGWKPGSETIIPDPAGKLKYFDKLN

O=S(=O)([O-])CCSSCCS(=O)(=O)[O-].[Na+].[Na+] [Tavocept, disodium 2,2′-dithio-bis-ethane sulfonate]
number of Tavocept-derived mesna moieties on Prx 4 ([1]; Mass Spectroscopy after reaction with Tavocept): 2 | Prx 4 cysteine bound by Tavocept-derived mesna moiety ([1]; X-ray, 2.3 Å, 40 mM Tavocept): Cys124 | Effect on ALK kinase activity [2]: resulting in inhibition of ALK kinase | Inhibition of ROS1 kinase (ROS1 kinase): directly inhibit ROS1 kinase in a time-dependent manner | Effect on Crizotinib inhibition of ROS1 kinase (ROS1 kinase; Tavocept incubated with ROS1 kinase prior to initiation of the kinase assays): potentiation of Crizotinib inhibition | Modification of ROS1 kinase (ROS1 kinase; time dependent): BNP7787 xenobiotically modifies ROS1 kinase in | effect on paclitaxel-induced hyperpolymerization of MTP [3]: normalizes | inhibition of paclitaxel promoted microtubule protein polymerization ([3]; 12 mM Tavocept, paclitaxel 10 μM): approximately 50% | Tavocept concentration giving final polymerization equal to GTP control ([3]; MTP exposed to paclitaxel): ≥ 6 mM | Tavocept concentration inhibiting paclitaxel (10 μM) promoted hyperpolymerization ([3]; paclitaxel 10 μM): > 1 mM | Tavocept concentration giving net polymerization equivalent to GTP/MgCl2 only control ([3]; paclitaxel/GTP/MgCl2 10 μM/1 mM/1 mM): 6 to 8 mM | microtubules visible on electron microscopy grids ([3]; preincubated 20 minutes on ice, with and without paclitaxel, qualitative): reduction in the abundance of microtubules | effect on GTP-catalyzed microtubule protein polymerization ([3]; preincubated with microtubule protein on ice 20 minutes, 37° C.): dose-dependent inhibitory effect; also recorded: inhibit GTP-catalyzed polymerization; also recorded: concentration dependent manner | inhibition (WT EGFR kinase): 9% | number of Tavocept-derived mesna adducts on Human Grx (Human Grx; Mass Spectrum): two | Grx cysteines with Tavocept-derived mesna adduct (Human Grx; atomic resolution map): Cys7 (Panel A) and Cys82 | mesna adduct on thioredoxin fragment CMPTFQFFK (thioredoxin): Cys73-mesna adduct | ERCC1 cysteine xenobiotically modified (Recombinant human ERCC1): Cys238; also recorded: Cys274 | number of Tavocept-derived mesna adducts on RNR1 cysteine residues (RNR subunit 1): ≤ 8 | interference with paclitaxel induced apoptosis [4]: does not interfere
